Test system: Mice
Assay: Marble burying test
Format: in vivo, mouse
Settings: Compound I 0.05 mg/kg orally 60 min before testing; diazepam 0.03-0.3 mg/kg i.p. 30 min before testing; 30 min test session; n=8
Experimental: FIGS. 1 and 2 show the effect of the compound exo-7-(8-H-8-aza-bicyclo[3.2.1]oct-3-yloxy)-chromen-2-one (Compound I or Cp I) and diazepam, respectively, in the mouse marble burying test. Compound I (0.05-0.2 mg/kg) was administered orally 60 min before testing. Diazepam (0.1-1 mg/kg) was injected via the intraperitoneal (i.p.) route 30 min before testing. *P<0.05, ***P<0.001 vs. vehicle-treated group (Student's t-test, n=8).
Compound I (0.05 mg/kg) was administered orally 60 min before testing. Diazepam (0.03-0.3 mg/kg) was injected via the intraperitoneal (i.p.) route 30 min before testing. Paroxetine (10 mg/kg, i.p., −30 min) served as a positive control. *P<0.05, **P<0.01 vs. vehicle-treated group (Student's t-test, n=8).
Mice were placed for 30 min in novel cages (one mouse per cage, 20×30 cm) in which there were 20 glass marbles (15 mm in diameter) situated in four rows of five placed on top of 5 cm of sawdust. […]

With `O=c1ccc2ccc(O[C@@H]3C[C@H]4CC[C@@H](C3)N4)cc2o1` [Compound I, exo-7-(8-H-8-aza-bicyclo[3.2.1]oct-3-yloxy)-chromen-2-one] as the compound, how does the “effect on the activity of diazepam in the mouse marble burying test (number of glass marbles buried)” value read?
The value was “augments the activity of diazepam”.

Source: patent publication US20110207722A1, “TREATMENT OF ANXIETY DISORDERS” (N[…]/S, priority 2008, published 2011)
